The source of these data is ChEMBL document CHEMBL1641553, “Antimalarials based on the dioxane scaffold of plakortin. A concise synthesis and SAR studies” (Bioorg Med Chem, 2011).

The test system of test [1] is Plasmodium falciparum. Briefly: Antimalarial activity against chloroquine-sensitive Plasmodium falciparum D10 infected in human A-positive red blood cells after 72 hrs by lactate dehydrogenase assay. The format is functional, organism-based. The settings on record: D10, 72 h.
The subject of test [2] is Plasmodium falciparum. Briefly: Antimalarial activity against chloroquine-resistant Plasmodium falciparum W2 infected in human A-positive red blood cells after 72 hrs by lactate dehydrogenase assay. The format is functional, organism-based. To be noted: W2, 72 h.

On to `CCCCC[C@H](O)/C=C\[C@@H](CC(=O)OCC)OCCCC`, for which the IC50 in test [1] and in test [2] was greater than 30 µM each time.

Take `CCCCC[C@@H]1OO[C@H](CC(=O)OCC)[C@@H]2O[C@@H]21`: the IC50 in test [1] and in test [2] was greater than 30 µM in each case.

With `CCCCC[C@@H]1OO[C@H](CC(=O)OCC)[C@@H](O)[C@H]1O`, the IC50 in test [1] and in test [2] was greater than 30 µM throughout.

As to `CCCCC[C@@H]1OO[C@H](CC(=O)OCC)[C@H]2O[C@H]21`, the IC50 (commonly the concentration at which inhibition is half-maximal) is 22.1 µM in test [1] and 10.3 µM in test [2].

As to `CCCCCC/C=C/C=O` [2-NONENAL], the IC50 in test [1] turned out to be 0.87 µM; in test [2], 0.39 µM.

As for `CCCCC[C@@H]1OO[C@H](CC(=O)OCC)[C@@H](Br)[C@@H]1Br`, the IC50 in test [1] worked out at 8.15 µM; in test [2] it was 5.11 µM.

With `CCCCCC/C=C/C=C/C(=O)OCC`, the figures for the IC50 in test [1] and in test [2] were 0.9 µM and 0.43 µM, respectively.

In the case of `CCCCC[C@H]1C=C[C@@H](CC(=O)O)OO1`, the figures for the IC50 in test [1] and in test [2] were 3.33 µM and 3.42 µM, respectively.

As for `CCCCC[C@H]1C=C[C@@H](CCO)OO1`, the IC50 in test [1] and in test [2] was greater than 30 µM each time.

As for `CCCCC[C@@H]1OO[C@H](CC(=O)OCC)[C@H](Br)[C@H]1Br`, the IC50 in test [1] stood at 9.12 µM; in test [2] it was 5.65 µM.

Consider `CCCCC[C@H]1C=C[C@@H](CCOC(C)=O)OO1`, for which the half-maximal inhibitory concentration (IC50) in test [1] is 21.9 µM; in test [2] it was 12.5 µM.

In the case of `CCCCC[C@H]1C=C[C@@H](CC(=O)OCC)OO1`, the figures for the IC50 in test [1] and in test [2] were 1.2 µM and 1.49 µM, respectively.
